Here are results for two compounds from US7939662B2, “Amorphous ziprasidone hydrochloride (5-[2-[4-(1,2-benzisothiazol-3-yl)-1-piperazinyl]ethyl]-6-chloro-1,3-dihydro-2H-indol-2-one hydrochloride) and processes to produce the same” (Apotex Pharmachem Inc., priority 2004, dated 2011).

The nature of one data set: aqueous solubility. Type of data set: physicochemical. Conditions: relative to those of the prior art; no test described.
For data set [1] the following is noted: crystalline monohydrate form; background statement; cited from earlier work.
The conditions of data set [2]: as stated in U.S. Pat. No. 5,312,925; cited from earlier work.

On to `Cl.O=C1Cc2cc(CCN3CCN(c4nsc5ccccc45)CC3)c(Cl)cc2N1` [amorphous ziprasidone hydrochloride, 5-[2-[4-(1,2-benzisothiazol-3-yl)-1-piperazinyl]ethyl]-6-chloro-1,3-dihydro-2H-indol-2-one hydrochloride], for which the “water solubility relative to the prior art forms” value in “aqueous solubility” is listed as “better water solubility”.
In the case of `Cl.O=C1Cc2cc(CCN3CCN(c4nsc5ccccc45)CC3)c(Cl)cc2N1` [ziprasidone hydrochloride monohydrate, 5-[2-[4-(1,2-benzisothiazol-3-yl)-1-piperazinyl]ethyl]-6-chloro-1,3-dihydro-2H-indol-2-one hydrochloride], in data set [1], the aqueous solubility result is “very low”. Besides, the hygroscopic stability result in data set [2] was “hygroscopically stable”.
